# Results from BindingDB's records for doi:10.1016/j.bmcl.2010.03.092 (Takeda California, 2010).
# Target: Histone deacetylase 2 (Homo sapiens) (UniProt Q92769)
# Test: Inhibition of human recombinant HDAC2
# Histone deacetylase 2 (Homo sapiens), sequence (Q92769 whole entry, looked up): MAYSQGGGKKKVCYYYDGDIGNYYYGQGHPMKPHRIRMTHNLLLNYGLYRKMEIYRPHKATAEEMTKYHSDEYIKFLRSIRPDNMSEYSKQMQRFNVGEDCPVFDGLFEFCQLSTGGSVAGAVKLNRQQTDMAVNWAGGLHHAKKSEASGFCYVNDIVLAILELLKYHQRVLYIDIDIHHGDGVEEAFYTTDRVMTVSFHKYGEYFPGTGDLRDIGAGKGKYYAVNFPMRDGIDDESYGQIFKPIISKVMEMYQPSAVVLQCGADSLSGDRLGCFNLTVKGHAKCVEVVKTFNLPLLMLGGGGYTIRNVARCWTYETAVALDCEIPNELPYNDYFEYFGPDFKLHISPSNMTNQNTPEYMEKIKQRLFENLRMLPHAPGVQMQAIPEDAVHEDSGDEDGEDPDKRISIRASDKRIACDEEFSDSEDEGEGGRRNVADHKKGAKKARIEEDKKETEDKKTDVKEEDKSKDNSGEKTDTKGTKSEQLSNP
row,Structure (SMILES),IC50 [nM]
1,CN1CCC[C@@H](n2c(-c3cccc(/C=C/C(=O)NO)c3)nc3ccccc32)C1 [(R)-N-hydroxy-3-(3-(1-(1-methylpiperidin-3-yl)-1H-benzo[d]imidazol-2-yl)phenyl)acrylamide],10
2,"Cc1nc(-c2cccc(/C=C/C(=O)NO)c2)n(CCc2ccccc2)c1C [3-(3-(4,5-dimethyl-1-phenethyl-1H-imidazol-2-yl)phenyl)-N-hydroxyacrylamide]",7.9
3,O=C(/C=C/c1cccc(-c2nc3ccccc3n2[C@@H]2CCCNC2)c1)NO [(R)-N-hydroxy-3-(3-(1-(piperidin-3-yl)-1H-benzo[d]imidazol-2-yl)phenyl)acrylamide],12
4,O=C(/C=C/c1cccc(-c2nc3ccccc3n2CCc2ccccc2)c1)NO [N-hydroxy-3-(3-(1-phenethyl-1H-benzo[d]imidazol-2-yl)phenyl)acrylamide],7.9
5,CN(C)CCn1c(-c2cccc(/C=C/C(=O)NO)c2)nc2ccccc21 [3-(3-(1-(2-(dimethylamino)ethyl)-1H-benzo[d]imidazol-2-yl)phenyl)-N-hydroxyacrylamide],63
6,Cc1nc(-c2cccc(/C=C/C(=O)NO)c2)n(CCN2CCOCC2)c1-c1ccccc1 [N-hydroxy-3-(3-(4-methyl-1-(2-morpholinoethyl)-5-phenyl-1H-imidazol-2-yl)phenyl)acrylamide],31
7,O=C(/C=C/c1cccc(-c2nc3ccccc3n2CCN2CCCC2)c1)NO [N-hydroxy-3-(3-(1-(2-(pyrrolidin-1-yl)ethyl)-1H-benzo[d]imidazol-2-yl)phenyl)acrylamide],16
8,COc1ccc(-n2c(-c3cccc(/C=C/C(=O)NO)c3)nc3ccccc32)cc1 [N-hydroxy-3-(3-(1-(4-methoxyphenyl)-1H-benzo[d]imidazol-2-yl)phenyl)acrylamide],40
9,O=C(/C=C/c1cccc(-c2nc3ccccc3n2CCN2CCCCC2)c1)NO [N-hydroxy-3-(3-(1-(2-(piperidin-1-yl)ethyl)-1H-benzo[d]imidazol-2-yl)phenyl)acrylamide],10
10,Cc1c(-c2ccccc2)nc(-c2cccc(/C=C/C(=O)NO)c2)n1CCN1CCOCC1 [N-hydroxy-3-(3-(5-methyl-1-(2-morpholinoethyl)-4-phenyl-1H-imidazol-2-yl)phenyl)acrylamide],10
11,Cc1c(Cc2ccccc2)nc(-c2cccc(/C=C/C(=O)NO)c2)n1CCc1ccccc1 [3-(3-(4-benzyl-5-methyl-1-phenethyl-1H-imidazol-2-yl)phenyl)-N-hydroxyacrylamide],7.9
12,O=C(/C=C/c1cccc(-c2nc3ccccc3n2Cc2ccccc2)c1)NO [3-(3-(1-benzyl-1H-benzo[d]imidazol-2-yl)phenyl)-N-hydroxyacrylamide],50
13,Cc1c(-c2ccccc2)nc(-c2cccc(/C=C/C(=O)NO)c2)n1[C@@H]1CCCN(C)C1 [(R)-N-hydroxy-3-(3-(5-methyl-1-(1-methylpiperidin-3-yl)-4-phenyl-1H-imidazol-2-yl)phenyl)acrylamide],5
14,CC(C)N(CCn1c(-c2cccc(/C=C/C(=O)NO)c2)nc2ccccc21)C(C)C [3-(3-(1-(2-(diisopropylamino)ethyl)-1H-benzo[d]imidazol-2-yl)phenyl)-N-hydroxyacrylamide],40
15,"Cc1nc(C)n(CCc2ccccc2)c1-c1cccc(/C=C/C(=O)NO)c1 [3-(3-(2,4-dimethyl-1-phenethyl-1H-imidazol-5-yl)phenyl)-N-hydroxyacrylamide]",79
16,Cc1c(Cc2ccccc2)nc(-c2cccc(/C=C/C(=O)NO)c2)n1CCN1CCOCC1 [3-(3-(4-benzyl-5-methyl-1-(2-morpholinoethyl)-1H-imidazol-2-yl)phenyl)-N-hydroxyacrylamide],12
17,CCN1CCCC(n2c(-c3cccc(/C=C/C(=O)NO)c3)nc3ccccc32)C1 (racemic) [(+/-)-3-(3-(1-(1-ethylpiperidin-3-yl)-1H-benzo[d]imidazol-2-yl)phenyl)-N-hydroxyacrylamide],20
18,CCN1CCC[C@@H](n2c(-c3cccc(/C=C/C(=O)NO)c3)nc(C)c2-c2ccccc2)C1 [(R)-3-(3-(1-(1-ethylpiperidin-3-yl)-4-methyl-5-phenyl-1H-imidazol-2-yl)phenyl)-N-hydroxyacrylamide],7.9
19,"CCN1CCC[C@@H](n2c(-c3cccc(/C=C/C(=O)NO)c3)nc(C)c2C)C1 [(R)-3-(3-(1-(1-ethylpiperidin-3-yl)-4,5-dimethyl-1H-imidazol-2-yl)phenyl)-N-hydroxyacrylamide]",12
20,Cc1nc(Cc2ccccc2)n(CCc2ccccc2)c1-c1cccc(/C=C/C(=O)NO)c1 [3-(3-(2-benzyl-4-methyl-1-phenethyl-1H-imidazol-5-yl)phenyl)-N-hydroxyacrylamide],40
21,Cc1c(-c2ccccc2)nc(-c2cccc(/C=C/C(=O)NO)c2)n1CCc1ccccc1 [N-hydroxy-3-(3-(5-methyl-1-phenethyl-4-phenyl-1H-imidazol-2-yl)phenyl)acrylamide],5

row,Structure (SMILES),IC50 [nM]
1,CCN(CC)CCn1c(-c2cccc(/C=C/C(=O)NO)c2)nc2ccccc21 [3-(3-(1-(2-(diethylamino)ethyl)-1H-benzo[d]imidazol-2-yl)phenyl)-N-hydroxyacrylamide],31
2,Cc1nc(-c2cccc(/C=C/C(=O)NO)c2)n(CCc2ccccc2)c1-c1ccccc1 [N-hydroxy-3-(3-(4-methyl-1-phenethyl-5-phenyl-1H-imidazol-2-yl)phenyl)acrylamide],7.9
3,Cc1c(-c2ccccc2)nc(-c2cccc(/C=C/C(=O)NO)c2)n1[C@@H]1CCCN(C(C)C)C1 [(R)-N-hydroxy-3-(3-(1-(1-isopropylpiperidin-3-yl)-5-methyl-4-phenyl-1H-imidazol-2-yl)phenyl)acrylamide],5
4,O=C(/C=C/c1cccc(-c2nc3ccccc3n2CC2CCNCC2)c1)NO [N-hydroxy-3-(3-(1-(piperidin-4-ylmethyl)-1H-benzo[d]imidazol-2-yl)phenyl)acrylamide],160
5,Cn1c(-c2cccc(/C=C/C(=O)NO)c2)nc2ccccc21 [N-hydroxy-3-(3-(1-methyl-1H-benzo[d]imidazol-2-yl)phenyl)acrylamide],120
6,Cc1nc(-c2cccc(/C=C/C(=O)NO)c2)n([C@@H]2CCCN(C)C2)c1-c1ccccc1 [(R)-N-hydroxy-3-(3-(4-methyl-1-(1-methylpiperidin-3-yl)-5-phenyl-1H-imidazol-2-yl)phenyl)acrylamide],10
7,C[C@H](c1ccccc1)n1c(-c2cccc(/C=C/C(=O)NO)c2)nc2ccccc21 [(R)-N-hydroxy-3-(3-(1-(1-phenylethyl)-1H-benzo[d]imidazol-2-yl)phenyl)acrylamide],25
8,Cc1c(Cc2ccccc2)nc(-c2cccc(/C=C/C(=O)NO)c2)n1[C@@H]1CCCN(C)C1 [(R)-3-(3-(4-benzyl-5-methyl-1-(1-methylpiperidin-3-yl)-1H-imidazol-2-yl)phenyl)-N-hydroxyacrylamide],6.3
9,O=C(/C=C/c1cccc(-c2nc3ccccc3n2-c2ccccc2)c1)NO [N-hydroxy-3-(3-(1-phenyl-1H-benzo[d]imidazol-2-yl)phenyl)acrylamide],63
10,CCN1CCC[C@H](n2c(-c3cccc(/C=C/C(=O)NO)c3)nc3ccccc32)C1 [(S)-3-(3-(1-(1-ethylpiperidin-3-yl)-1H-benzo[d]imidazol-2-yl)phenyl)-N-hydroxyacrylamide],31
11,CCN1CCC[C@@H](n2c(-c3cccc(/C=C/C(=O)NO)c3)nc3ccccc32)C1 [(R)-3-(3-(1-(1-ethylpiperidin-3-yl)-1H-benzo[d]imidazol-2-yl)phenyl)-N-hydroxyacrylamide],10
12,O=C(/C=C/c1cccc(-c2nc3ccccc3n2CCCc2ccccc2)c1)NO [N-hydroxy-3-(3-(1-(3-phenylpropyl)-1H-benzo[d]imidazol-2-yl)phenyl)acrylamide],12
13,O=C(/C=C/c1cccc(-c2nc3ccccc3n2CCN2CCOCC2)c1)NO [N-hydroxy-3-(3-(1-(2-morpholinoethyl)-1H-benzo[d]imidazol-2-yl)phenyl)acrylamide],50
14,CCN1CCC[C@@H](n2c(-c3cccc(/C=C/C(=O)NO)c3)nc(Cc3ccccc3)c2C)C1 [(R)-3-(3-(4-benzyl-1-(1-ethylpiperidin-3-yl)-5-methyl-1H-imidazol-2-yl)phenyl)-N-hydroxyacrylamide],10
15,CC(C)n1c(-c2cccc(/C=C/C(=O)NO)c2)nc2ccccc21 [N-hydroxy-3-(3-(1-isopropyl-1H-benzo[d]imidazol-2-yl)phenyl)acrylamide],79
16,CCN1CCC[C@@H](n2c(Cc3ccccc3)nc(C)c2-c2cccc(/C=C/C(=O)NO)c2)C1 [(R)-3-(3-(2-benzyl-1-(1-ethylpiperidin-3-yl)-4-methyl-1H-imidazol-5-yl)phenyl)-N-hydroxyacrylamide],120
17,O=C(/C=C/c1cccc(-c2nc3ccccc3[nH]2)c1)NO [3-(3-(1H-benzo[d]imidazol-2-yl)phenyl)-N-hydroxyacrylamide],100
18,Cc1nc(-c2cccc(/C=C/C(=O)NO)c2)n(CCN2CCOCC2)c1Cc1ccccc1 [3-(3-(5-benzyl-4-methyl-1-(2-morpholinoethyl)-1H-imidazol-2-yl)phenyl)-N-hydroxyacrylamide],10
19,Cc1nc(-c2cccc(/C=C/C(=O)NO)c2)n([C@@H]2CCCN(C(C)C)C2)c1-c1ccccc1 [(R)-N-hydroxy-3-(3-(1-(1-isopropylpiperidin-3-yl)-4-methyl-5-phenyl-1H-imidazol-2-yl)phenyl)acrylamide],6.3
20,Cc1nc(-c2cccc(/C=C/C(=O)NO)c2)n(CCc2ccccc2)c1Cc1ccccc1 [3-(3-(5-benzyl-4-methyl-1-phenethyl-1H-imidazol-2-yl)phenyl)-N-hydroxyacrylamide],5
21,"Cc1nc(-c2cccc(/C=C/C(=O)NO)c2)n(CCN2CCOCC2)c1C [3-(3-(4,5-dimethyl-1-(2-morpholinoethyl)-1H-imidazol-2-yl)phenyl)-N-hydroxyacrylamide]",31
